The values below come from PubChem BioAssay (NCI).

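Each compound was tested at five concentrations against cells in 96-well plates for 48 hours. Definition used: TGI = concentration required for complete inhibition of growth.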

Among the test systems are 786-0 renal; HT29 colon; MOLT-4 leukemia; NCI-H23 lung; NCI-H522 lung; OVCAR-4 ovarian; UACC-257 melanoma; UO-31 renal.
Common to all, as to experiment: NCI tumour cell line growth inhibition, 48 h

For `COC(=O)C1=C(c2ccc(Cl)cc2)C(O)N=C(NN)N1` (configuration not stated), the TGI with 786-0 renal, with HT29 colon, in the assay on MOLT-4 leukemia, with NCI-H23 lung, in the assay with NCI-H522 lung and in the assay with OVCAR-4 ovarian was > 100 µM in each case. Moreover, the TGI in the assay with UACC-257 melanoma and with UO-31 renal was > 100 µM in each case.
As to `N#CC(C(=O)CCC(=O)Nc1ccc(Cl)c(Cl)c1)c1ccc(Cl)cc1` (configuration not stated), the TGI in the assay with 786-0 renal, with HT29 colon, with MOLT-4 leukemia, with NCI-H23 lung, with OVCAR-4 ovarian and in the assay with UACC-257 melanoma was > 100 µM in each case. In addition, the TGI in the assay with UO-31 renal is > 100 µM.
For `OC1c2ccccc2C2C(O)c3ccccc3C12` (configuration not stated), the TGI in the assay with 786-0 renal, with HT29 colon, in the assay with MOLT-4 leukemia, with NCI-H23 lung, with NCI-H522 lung and with OVCAR-4 ovarian was > 100 µM throughout. In addition, the TGI in the assay with UACC-257 melanoma and in the assay on UO-31 renal was > 100 µM each time.
For `CC(=O)O[C@H]1CC[C@@]2(C)C(=C/C(=N\[N+](=O)[O-])[C@H]3C4CCC([C@H](C)CCCC(C)C)[C@@]4(C)CCC32)C1` (some centres not stated), the TGI with 786-0 renal, with HT29 colon, in the assay on MOLT-4 leukemia, in the assay with NCI-H23 lung, in the assay on NCI-H522 lung and with OVCAR-4 ovarian was > 100 µM each time. In addition, the TGI with UACC-257 melanoma and with UO-31 renal was > 100 µM each time.
Regarding `CC(=O)O/N=C/c1cc2c(cc1Br)OCO2`, the TGI in the assay with 786-0 renal, in the assay with HT29 colon, in the assay with MOLT-4 leukemia, in the assay with NCI-H23 lung, with NCI-H522 lung and in the assay on UACC-257 melanoma was > 349 µM throughout.
Turning to `CCSC(=O)C1(C)OC2CCCCC2C1=O` (configuration not stated), the TGI in the assay with 786-0 renal, in the assay with MOLT-4 leukemia, with NCI-H522 lung, with OVCAR-4 ovarian, with UACC-257 melanoma and in the assay on UO-31 renal was > 100 µM each time.
`CC1(C)N=C(Oc2ccccc2)n2nccc2N1`: the TGI with 786-0 renal, in the assay on HT29 colon, in the assay with MOLT-4 leukemia, in the assay on NCI-H23 lung, with NCI-H522 lung and with OVCAR-4 ovarian was > 100 µM in each case. Also, the TGI in the assay with UACC-257 melanoma and with UO-31 renal was > 100 µM each time.
In the case of `O=c1cc(-c2ccc(O)cc2)oc2cc(O)cc(O)c12`, the TGI was > 100 µM with 786-0 renal; 88.4 µM in the assay on MOLT-4 leukemia; 46.6 µM in the assay on NCI-H23 lung; 64.5 µM with NCI-H522 lung; > 100 µM in the assay on OVCAR-4 ovarian; 73.9 µM in the assay on UACC-257 melanoma. This compound registered a TGI in the assay with UO-31 renal of 56.4 µM.
For the compound `COC1(Cc2ccccc2)C(=O)c2ccccc2N1C(C)=O` (configuration not stated), the TGI in the assay with 786-0 renal, in the assay with HT29 colon, in the assay with MOLT-4 leukemia, with NCI-H23 lung, with OVCAR-4 ovarian and with UACC-257 melanoma was > 100 µM in each case. In the assay on UO-31 renal, the TGI was > 100 µM.
Take `Nc1ccc(C2=Nc3ccccc3SC(c3ccccc3O)C2)cc1` (configuration not stated): the TGI is 73.6 µM with 786-0 renal; > 100 µM in the assay on HT29 colon; 58.5 µM in the assay on MOLT-4 leukemia; > 100 µM with NCI-H23 lung; 64.9 µM with NCI-H522 lung; > 100 µM in the assay with OVCAR-4 ovarian. In addition, the TGI in the assay on UACC-257 melanoma and in the assay with UO-31 renal was > 100 µM each time.
For `O=C(NC1C=Nc2ccccc2NC1=O)c1ccccc1Cl` (configuration not stated), the TGI in the assay on 786-0 renal was > 100 µM; in the assay on HT29 colon, > 100 µM; in the assay on MOLT-4 leukemia it was 54.4 µM; in the assay on NCI-H23 lung, > 100 µM; with NCI-H522 lung it was > 100 µM; with OVCAR-4 ovarian it was > 100 µM. Besides, the TGI in the assay on UACC-257 melanoma and in the assay on UO-31 renal was > 100 µM throughout.
Turning to `CC#Cc1c(C#CC)c(OC)c2c(c1OC)C(=O)c1ccccc1C2=O`, the TGI in the assay on 786-0 renal is > 100 µM; with HT29 colon it was > 100 µM; in the assay on MOLT-4 leukemia it was > 100 µM; with NCI-H23 lung, > 100 µM; with NCI-H522 lung it was 42.5 µM; in the assay with OVCAR-4 ovarian it was > 100 µM. Moreover, the TGI in the assay on UACC-257 melanoma and in the assay with UO-31 renal was > 100 µM each time.
As to `CC(C)c1cccc(C(C)C)c1NC(=O)C(=O)C1SC(=S)NC1=O` (configuration not stated), the TGI in the assay with 786-0 renal, with HT29 colon, in the assay on MOLT-4 leukemia, in the assay on NCI-H23 lung, with NCI-H522 lung and in the assay on OVCAR-4 ovarian was > 100 µM in each case. In addition, the TGI in the assay on UACC-257 melanoma and with UO-31 renal was > 100 µM throughout.
`CCCCCCCCCCCCCCCCCc1nnc(N)o1`: the TGI in the assay with 786-0 renal, in the assay with HT29 colon, in the assay on MOLT-4 leukemia, in the assay on NCI-H23 lung, with NCI-H522 lung and with OVCAR-4 ovarian was > 100 µM in each case. Further, the TGI in the assay with UACC-257 melanoma and in the assay on UO-31 renal was > 100 µM in each case.
Regarding `O=C1NN=CN2C(=O)CCC12` (configuration not stated), the TGI with 786-0 renal, in the assay on MOLT-4 leukemia, with NCI-H23 lung, in the assay on OVCAR-4 ovarian, with UACC-257 melanoma and with UO-31 renal was > 100 µM each time.
For the compound `CCOC(=O)/C=C1\Oc2ccccc2C1(C)O` (configuration not stated), the TGI in the assay with 786-0 renal, in the assay on HT29 colon, with MOLT-4 leukemia, in the assay with NCI-H23 lung, with NCI-H522 lung and in the assay on OVCAR-4 ovarian was > 100 µM in each case. The TGI in the assay with UACC-257 melanoma and with UO-31 renal was > 100 µM each time.
With `CCOC(=O)c1cn(CC)c2cc3c(cc2c1=O)SCS3`, the TGI with 786-0 renal, in the assay on HT29 colon, in the assay with MOLT-4 leukemia, with NCI-H23 lung, in the assay with NCI-H522 lung and in the assay on OVCAR-4 ovarian was > 100 µM in each case. Moreover, the TGI in the assay with UACC-257 melanoma and with UO-31 renal was > 100 µM each time.
